Results filed as inconclusive are left out.
test system: M. tuberculosis H37Rv growth inhibition, 7H9 media; assay: M. tuberculosis growth inhibition, HTS (AID 449762); conditions: measured here: IC90 growth inhibition;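 also: bacterial growth assessed after seven days of incubation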

SMILES	IC90
Brc1ccc2c(c1)C(OC1CN3CCC1CC3)c1ccccc1CS2 (stereo not drawn)	28.4 µM
CCOc1ccc(N2C=Nc3ccc(OCC)cc3C2)cc1	89.4 µM
Cc1ccc(C(=O)N/C(=C/c2ccco2)C(=O)OCN2C(=O)c3ccccc3C2=O)cc1	49.9 µM
Cc1ccn2c(NC3CCCCC3)c(-c3cccc(-c4cccc(Cl)c4)c3)nc2c1	27 µM
Nc1c(C(=O)OCC2CCCO2)c2nc3ccccc3nc2n1C1CCCC1 (stereo not drawn)	> 100 µM
Cc1ccc(S(=O)(=O)CNC(=S)c2ccc3ccccc3c2)cc1	> 100 µM
CCOc1ccc(N/C(C)=C/C(=O)c2ccc3c(c2)OCCO3)cc1	47.2 µM
Cc1cccc(C)c1Nc1c(-c2ccccn2)nc2ccccn12	5.73 µM
Clc1ccc(SCc2cc(N3CCOCC3)nc(-c3ccccn3)n2)cc1	6.27 µM
COc1ccc(NCc2nc3ccccc3n2CCOc2ccccc2)cc1	50.6 µM
COc1cc(-c2ccc3oc(-c4ccsc4)cc(=O)c3c2)cc(OC)c1OC	17.6 µM
COc1ccc(C2=NN(C(=O)COC(=O)c3ccc(S(C)(=O)=O)c([N+](=O)[O-])c3)C(c3ccco3)C2)cc1 (stereo not drawn)	14.9 µM
CCCCS/C(N)=N/N=C/c1cc(C)ccc1O	13.9 µM
Cc1ccc(C(=O)ONc2ccc(N=O)cc2)cc1	43.1 µM
COC(=O)CCc1nc2c(C#N)c(-c3ccc(Cl)cc3)ccn2n1	3.31 µM
CN(C)CCCN1c2ccccc2Sc2ccc(Cl)cc21	59 µM
CC(C)c1nc2scc(-c3ccc(Cl)cc3)c2c(=O)n1N	> 100 µM
O=C1CC(=C(c2ccccc2)c2ccccc2)C(=O)N1CCCCN1CCN(c2ccccc2)CC1	26 µM
CN(C)C1(CNC(=O)Nc2ccc(Cl)c(Cl)c2)CCCCC1	12.5 µM
C=C[C@]1(C)C[C@@H](OC(=O)CSCCN(CC)CC)[C@]2(C)C(C)CC[C@]3(CCC(=O)[C@H]32)[C@@H](C)[C@@H]1O (stereo partly drawn)	7.7 µM
Oc1ccc(N=Nc2n[nH]c(-c3ccc(Cl)cc3)n2)cc1	59 µM
O=C(Nc1cccc(Cl)c1)N1CCN(C/C=C/c2ccccc2)CC1	52.7 µM

SMILES	IC90
Cc1cc(C(=O)CCl)c(C)n1CCc1ccc(Cl)cc1	2.18 µM
CN(C)c1nc(NCc2ccccc2)nc(N/N=C/c2ccc3c(c2)OCO3)n1	> 100 µM
[O-][n+]1c2ccccc2c2n1CCN1CCOC21c1ccc(Cl)cc1 (stereo not drawn)	68 µM
FC(F)(F)c1cc(CO[C@@H]2CCCN[C@@H]2c2ccccc2)cc(C(F)(F)F)c1	28.8 µM
COc1cc(N)c(Cl)cc1C(=O)N[C@H]1CCN(CCCOc2ccc(F)cc2)C[C@H]1OC	55.2 µM
CSc1nc2nc3c(c(=O)n2[nH]1)CCCC3	> 100 µM
COC(=O)C1C(O)C(C)C(O)C(C)/C=C\C=C(/C)C(=O)Nc2c(C)c(OC(C)=O)c3c(c2O)C(=O)C(C)=C2OCOC(=C23)/C(C)=C/C(C)(O)C(O)C(C)C1O (stereo not drawn)	< 0.2 µM
NC(=O)c1ccc(N=Cc2ccc([N+](=O)[O-])s2)cc1	13.6 µM
O=C(Cc1ccccc1)N/N=C/c1ccc2cccc(O)c2n1	12.3 µM
CC(=O)c1cccc2c(O)c(C3=Nc4ccccc4C3=O)[nH]c12	13.2 µM
Cc1ccc(NC(=S)N(CCCN2CCCC2)Cc2cccn2Cc2ccc(Cl)cc2)cc1C	> 100 µM
Clc1ccc(CCC(Cn2ccnc2)Sc2c(Cl)cccc2Cl)cc1 (stereo not drawn)	14.3 µM
CC(=O)c1ccc(Sc2nnnn2-c2ccccc2)c([N+](=O)[O-])c1	13.3 µM
COc1ccccc1C1=NOC(COC(=O)c2ccc([N+](=O)[O-])cc2)C1 (stereo not drawn)	> 100 µM
Cc1occc1-c1nnc(SCC(=O)NCCc2ccccc2)o1	20 µM
COc1ccc(N=c2cc(-c3ccc(O)cc3)oc3ccccc23)cc1	25.8 µM
C=CCOc1ccccc1CN(C(=O)CCl)c1ccc2c(c1)OCO2	2.58 µM
CCc1ccc(C2=NN(c3ccc(S(N)(=O)=O)cc3)C(c3ccc(F)cc3)C2)cc1 (stereo not drawn)	48.7 µM
COc1cc(NC(C)CCCN)c2ncccc2c1 (stereo not drawn)	13.9 µM
CCC(C)(C)c1ccc(OCCCC[n+]2ccc(C)cc2)c(C(C)(C)CC)c1	15 µM
COC(=O)c1cc(/C=C/c2ccccc2)on1	> 100 µM
O=C1c2ccccc2-c2onc3ccc(Oc4ccccc4)c1c23	10.9 µM

SMILES	IC90
Ic1ccccc1CN[C@@H]1C2CCN(CC2)[C@@H]1C(c1ccccc1)c1ccccc1	38.4 µM
CCNC(=S)NN=C1c2ccccc2-c2ccccc21	12.7 µM
Oc1ccccc1Nc1nc(NCc2ccccc2)c2ccccc2n1	21.1 µM
Cc1nc(Nc2ccc(Cl)c(Cl)c2)sc1C(=O)Nc1ccccc1	> 100 µM
COc1ccc2c3n(nc2c1)CCN=C3c1cc(Cl)c(N)c(Cl)c1	31.9 µM
CCCn1c(Nc2nc3ccccc3n2C)nc2ccccc21	88.7 µM
Cn1c(=O)c(C(=O)NNC(=O)c2cccc(Cl)c2)c(O)c2ccccc21	1.28 µM
NC(=S)N/N=C/c1ccc(-c2ccccc2)o1	75 µM
O=C1C2(Cl)C3(Cl)C4(Cl)C(Cl)(Cl)C5(Cl)C3(Cl)C1(Cl)C5(Cl)C24Cl (stereo not drawn)	53 µM
C=CCn1c(O)c(N=Nc2ccccc2O)c2ccccc21	24.3 µM
OC(CNCC(c1ccc(Cl)cc1Cl)c1c[nH]c2ccccc12)c1ccccc1 (stereo not drawn)	23.4 µM
Cn1cc(NC(=O)CCl)cn1	8.63 µM
CCCCn1nc(C(=O)N[C@@H](CCSC)c2nc3ccccc3[nH]2)c2ccccc2c1=O	78.5 µM
COc1cc2[nH]c(Cl)c([N+](=O)[O-])c2cc1OC	> 100 µM
CCOC(=O)C(C)Sc1nc(-c2cccs2)ccc1C#N (stereo not drawn)	50.8 µM
C=CCc1cc(C)ccc1OCCCC(C(=O)OCC)C(=O)OCC	21.4 µM
Cc1cccc(C)c1OCCCCc1c(C)n[nH]c1C	26.4 µM
O=c1oc2ccccc2c(Nc2ccccc2O)c1[N+](=O)[O-]	14 µM
C/C(=C\C(=O)c1ccccc1)Nc1ccc(Cl)c(Br)c1	> 100 µM
COc1ccc(C2=Nn3c(nnc3-c3ccccc3F)SC2)cc1OC1CCCC1	19.6 µM
O=C(COc1ccccc1)NNc1nc2ccccc2s1	> 100 µM
COc1ccccc1Nc1nc(N)nc(CCl)n1	8.82 µM

SMILES	IC90
O=C(NCC(c1cccs1)N1CCOCC1)c1cc([N+](=O)[O-])cc([N+](=O)[O-])c1 (stereo not drawn)	0.81 µM
COc1cc(OC)nc(-n2ncc(Br)c(Br)c2=O)n1	60.7 µM
CCOC(=O)COc1ccc(S(=O)(=O)NCCC2=CCCCC2)cc1	27.6 µM
CN=c1scc(-c2ccccc2Br)n1/N=C/c1ccc[nH]1	54.2 µM
CCCn1nnc(NC(=O)COc2ccc(CC)cc2)n1	> 100 µM
O=C(CSC1=NC(=O)C(c2ccccc2)C(=O)N1)Nc1ccccc1Cl (stereo not drawn)	6.58 µM
CCc1ccc(-c2csc(-c3c[nH]c4ccccc34)n2)cc1	21.7 µM
CC(C)CS(=O)(=O)C1=NN2C(=N)/C(=C\c3ccc(OC(=O)c4ccco4)cc3)C(=O)N=C2S1	25.9 µM
Cc1c([N+](=O)[O-])cnc(Sc2ccccc2)c1[N+](=O)[O-]	7.59 µM
CCOC(=O)COc1ccc(C2CC(C)=NN2c2ccccc2)cc1 (stereo not drawn)	17.7 µM
CC(/C=C/C=C/c1ccccc1)=N\NC(=O)c1cccnc1	> 100 µM
CC(C)(C)Nc1nc(NC(C)(C)C)nc(-n2ccnc2)n1	> 100 µM
COc1ccc(-c2cc(C3CCN(Cc4cccc(C(F)(F)F)c4)CC3)[nH]n2)cc1	15.9 µM
Cc1cccc(OCc2n(CC(=O)OC3CC(C)CCC3C(C)C)c3ccccc3[n+]2C)c1 (stereo not drawn)	9.6 µM
O=C(Nc1ccc(OCC(F)(F)C(F)F)c(C(F)(F)F)c1)c1ccc(Cl)cc1	47.1 µM
CC1(CCc2ccccc2)NC(=S)N(c2ccc(Cl)cc2)N1 (stereo not drawn)	> 100 µM
O=C(O)C1CC=CCC1C(=O)N1CCN(c2nc(-c3ccccc3Cl)c3cc(Br)ccc3n2)CC1 (stereo not drawn)	78.5 µM
CC1(c2ccc(Cl)c(Cl)c2)NC(=S)N2C1NC(=S)N2c1ccccc1 (stereo not drawn)	> 100 µM
CCOC(=O)CNC(=O)c1sc2ncnc(N3CCc4ccccc4C3)c2c1C	> 100 µM
O=C(c1cc2cc(F)ccc2[nH]1)N(Cc1cccnc1)CC1CCCN(C2CCCCC2)C1 (stereo not drawn)	33.6 µM
COc1c[nH]n(C2CCCCC2)c(=O)c1=O	18.1 µM
CCCOc1ccc(N2CC(C(=O)Nc3ccccn3)CC2=O)cc1 (stereo not drawn)	59.1 µM
